From US20070196514A1, “Prostate cancer treatment with glycogen synthase kinase-3beta inhibitors” (priority 2006, published 2007)

Legend:
[1] = system: LNCaP cells; assay: Western blot of cell cycle-related proteins; assay type: cell-based, human; settings: BIO at different doses for 24 hours
Protocol: Western blot was carried out as described previously (Liao 2004, Liao 2003, and Liao 2005). Briefly, cells were pellets and lysed in radio-immunoprecipitation assay (“RIPA”) buffer containing protease inhibitors (Half™ Protease Inhibitor Cocktail Kit, PIERCE, Rockford, Ill.). Proteins were separated on SDS-PAGE gels and transferred to Immuno-Blot™ PVDF membrane (BIO-RAD, Hercules, Calif.). Membranes were blocked in a tris-buffered solution plus Tween 20 (“TBST”) solution with 5% nonfat dry milk and incubated with primary antibodies overnight at 4° C. Immunoreactive signals were detected by horseradish peroxidase-conjugated secondary antibodies (Santa Cruz Biotech., Santa Cruz, Calif.) followed by SuperSingnal® WestFeml® Maximum Sensitivity Substrate (PIERCE).
To verify those alterations at a protein level, two series experiments were conducted using Western blot technique. The first involved a time-course experiment. After serum starvation, LNCaP cells were left untreated or treated as before with LiCl for up to 24 hours. Cells were harvested at 18-24 hours.
Next, a dose-response experiment was performed. Following serum starvation for 24 hours, LNCaP cells were treated with BIO at different doses for another 24 hours. Control cells received the vehicle as treatment.

[2] = system: LNCaP cells; assay: MTT cell growth assay; assay type: cell-based, human; settings: three days; for cell growth (MTT): increasing doses in full culture medium, dose-responsive; for cell growth inhibition (MTT): equimolecular concentrations of LiCl, NaCl, KCl
Protocol: (§1) For MTT-based cell growth assays, cells seeded in 96-well plates were serum-starved for 48 hours, and were then treated with vehicle or different reagents for different time periods as indicated in the figures. MTT assay were carried out using a pre-assembled kit (Sigma) according to the manufacturer's manual.
(§2) To rule out the eventual intervention of the chloride anion and the osmotic disturbance, the effect of LiCl was compared with sodium chloride (“NaCl”) and potassium chloride (“KCl”) at equimolecular concentrations in both LNCaP and PC-3 cell lines. In addition, the androgen-insensitive C4-2 cell line was included. To easily handle the experiments while multiple comparisons were taken in place, a MTT assay was used to assess cell growth.
Lastly, two GSK-3β-specific small chemical inhibitors, SB216763 and BIO, were used to verify that LiCl-induced suppression of cell growth is due to GSK-3β inhibition. LNCaP cells were seeded as above and then treated with increasing doses of the inhibitors in a full culture medium. Cell growth was assessed three days later by MTT assay.

[3] = system: C4-2 cells; assay: MTT cell growth assay; assay type: cell-based, human; settings: equimolecular concentrations of LiCl, NaCl, KCl, three days
Protocol: as §1, §2

[4] = system: PC-3 cells; assay: MTT cell growth assay; assay type: cell-based, human; settings: equimolecular concentrations of LiCl, NaCl, KCl, three days
Protocol: as §1, §2

[5] = system: AR-null PC-3 cells; settings: Mazor 2004; cited from earlier work
[6] = system: LNCaP-BclxL xenografts; assay: LNCaP-BclxL xenograft model; assay type: in vivo, castrated nude mice
Protocol: All animal studies were conducted under an approved Institutional Animal Care and Use Committee protocol. Single cell suspensions (2×10^6 cells in 0.1 ml of RPMI1640 medium plus 10% FBS) were inoculated subcutaneously (s.c.) into the rear flanks (two sites/mouse) of 6 to 7 weeks old male nude mice (Charles River, Wilmington, Mass.). For protocol A, mice were randomly divided into two groups (5 animals each). On next day after inoculation, one group of animals received i.p. injection of LiCl at a daily dose of 2 mg/kg body weight. LiCl was dissolved in PBS. The control groups of animals received PBS alone in the same volume. Xenograft development and growth were monitored for 8 weeks. The tumor dimensions were measured twice a week. The tumor volume was calculated by the formula of L×W×H×0.5236 (Miyake 2001). At the end of treatment, xenograft tumors were extirpated, and the final tumor size and weight, as well as animal weight were measured. For protocol B, treatment began until tumor became palpable or 50 mm^3 in size, and LiCl or PBS was injected (5 animals each group) as above for a two-week course. Tumor size and weight were measured at the end of treatment. For BrdU in vivo labeling, the animals were injected i.p. with 0.5 ml of a 10-mM BrdU solution (Invitrogen) 2 hours before sacrifice. For experiments involving LNCaP-BclxL SB216763 subline cells (Liao 2005) were inoculated as above, and SB216763 treatment was started two weeks later when palpable xenografts were established. The SB216763 for animal use was purchased from Biomol (Plymouth Meeting, Pa.) and dissolved in a formula containing 50% N,N-dimethylacetamide (“DMA”), 45% polyethylene glycol 400 (“PEG-400”) and 5% Tween-80. SB216763 (2 mg/kilogram/bodyweight) or the solvent in 20 μl volume was injected i.p. three times a week. Tumor growth was monitored as discussed herein. […]

[7] = system: C4-2 cells; assay: cell cycle analysis by flow cytometry (PI); assay type: cell-based, human; settings: 12 hours treatment
Protocol: (§3) For cell cycle analysis, serum-starved cells were left untreated or treated with different inhibitors for various time periods as indicated in the figures. After trypsinization, the cells were fixed and stained with propidium iodide (“PI”). Cell cycle distribution of PI-labeled cells was analyzed on a fluorescence activated cell sorter (Model EPICS XL-MCL, Beckman-Coulter Co., Fullerton, Calif.) as described previously (Miyake 2001).
(§4) The effect of GSK-3β SB216763 on cell cycle distribution in AR-null PC-3 and androgen-insensitive C4-2 cell lines were also examined.

[8] = system: PC-3 cells; assay: cell cycle analysis by flow cytometry (PI); assay type: cell-based, human; settings: 12 hours treatment
Protocol: as §3, §4

[9] = estimated serum lithium level in mice; assay type: in vivo; settings: about 2 mg/kg of body weight, estimated (Moore 2002)
Excerpt: Based on these preliminary results, therapeutically effective dosage levels include those substantially below those used for treatment of bipolar disorders with lithium in humans, which are reported to result in a serum level between about 0.2 and 1.5 mEq/L (Noble 2005), and is usually over 0.8 mEq/L.

[10] = humans; cited from earlier work

Structure (SMILES): O=C1Nc2cc(Br)ccc2/C1=C1/Nc2ccccc2/C1=N\O [BIO, 6-bromoindirubin-3′-oxime]
- p21CIP1 protein expression (Western blot) [1]: increased dramatically
- protein levels of cyclins A and E, cdc6 and cdc25C (Western blot) ([1]; dose-dependent): significantly reduced
- cell growth (MTT) [2]: significantly suppressed

Structure (SMILES): [Cl-].[K+] [KCl, potassium chloride]
- cell growth inhibition (MTT) [3]: did not cause any significant inhibition
- cell growth inhibition (MTT) [4]: did not cause any significant inhibition
- cell growth inhibition (MTT) [2]: did not cause any significant inhibition

Structure (SMILES): [Cl-].[Na+] [NaCl, sodium chloride]
- cell growth inhibition (MTT) [3]: did not cause any significant inhibition
- cell growth inhibition (MTT) [4]: did not cause any significant inhibition
- cell growth inhibition (MTT) [2]: did not cause any significant inhibition

Structure (SMILES): Cn1cc(C2=C(c3ccc(Cl)cc3Cl)C(=O)NC2=O)c2ccccc21 [SB216763, 3-(2,4-Dichlorophenyl)-4-(1-methyl-1H-indol-3yl)-1H-pyrrole-2,5-dione]
- growth of AR-null PC-3 cells [5]: did not affect growth
- side effects ([6]; SB216763 2 mg/kg i.p.): No side effects
- tumor growth vs control animals ([6]; SB216763 2 mg/kg i.p. every two days, palpable tumors): largely suppressed
- treatment duration after which difference in tumor volume became significant ([6]; SB216763 2 mg/kg i.p. vs vehicle): 5 week
- cell cycle distribution (S-phase arrest) [7]: arrested these cells in S-phase
- cell cycle distribution (S-phase arrest) [8]: arrested these cells in S-phase
- cell growth (MTT) [2]: significantly suppressed

Structure (SMILES): [Li] [lithium]
- serum level [9]: about 0.02 mEq/L
- usual serum level at dosages used for treatment of bipolar disorders [10]: over 0.8 mEq/L
